From ChEMBL document CHEMBL3885881, “DrugMatrix”

Species: Rattus norvegicus
Experiment: DrugMatrix - Regimen: Daily Repeat
Format: toxicity, organism-based, Sprague-Dawley
Design: regimen Daily Repeat, gender Male, age 6-8 weeks
Details: in vivo, po, route oral GAVAGE, vehicle .5 % CMC; for ABSOLUTE BASOPHIL / ABSOLUTE EOSINOPHIL / ABSOLUTE LYMPHOCYTE / ABSOLUTE MONOCYTE / ABSOLUTE SEGMENTED NEUTROPHIL / BASOPHIL / EOSINOPHIL / ERYTHROCYTE COUNT / HEMATOCRIT / HEMOGLOBIN / LEUKOCYTE COUNT / LYMPHOCYTE / MEAN CORPUSCULAR HEMOGLOBIN / MEAN CORPUSCULAR HEMOGLOBIN CONCENTRATION / MEAN CORPUSCULAR VOLUME / MONOCYTE / NEUTROPHIL / NUCLEATED RED BLOOD CELLS / PLATELET COUNT: tissue Blood; for ALANINE AMINOTRANSFERASE / ALBUMIN / ALKALINE PHOSPHATASE / ASPARTATE AMINOTRANSFERASE / BLOOD UREA NITROGEN / CARBON DIOXIDE / CHLORIDE / CHOLESTEROL / CREATINE PHOSPHOKINASE / CREATININE / GLUCOSE / LACTATE DEHYDROGENASE / LIPASE / PHOSPHORUS / SODIUM / TOTAL BILIRUBIN / TOTAL PROTEIN / URIC ACID: tissue Plasma
[1] = 20 mg/kg, 72 h, dose level Low, time 3 day
[2] = 20 mg/kg, 120 h, dose level Low, time 5 day
[3] = 2000 mg/kg, 72 h, dose level High, time 3 day
[4] = 2000 mg/kg, 120 h, dose level High, time 5 day

NCCCC[C@H](N[C@@H](CCc1ccccc1)C(=O)O)C(=O)N1CCC[C@H]1C(=O)O [LISINOPRIL ANHYDROUS]
ABSOLUTE BASOPHIL [1]: 0 CELLS/uL
ABSOLUTE EOSINOPHIL [1]: 69 CELLS/uL
ABSOLUTE LYMPHOCYTE [1]: 9482.67 CELLS/uL
ABSOLUTE MONOCYTE [1]: 143.67 CELLS/uL
ABSOLUTE SEGMENTED NEUTROPHIL [1]: 904.67 CELLS/uL
BASOPHIL [1]: 0%
EOSINOPHIL [1]: 0.67%
ERYTHROCYTE COUNT [1]: 5.65 x10E6/uL
HEMATOCRIT [1]: 34.1%
HEMOGLOBIN [1]: 13.3 G/DL
LEUKOCYTE COUNT [1]: 10.6 x10E3/uL
LYMPHOCYTE [1]: 89.33%
MEAN CORPUSCULAR HEMOGLOBIN [1]: 23.63 pg
MEAN CORPUSCULAR HEMOGLOBIN CONCENTRATION [1]: 39 G/DL
MEAN CORPUSCULAR VOLUME [1]: 60.5 fL
MONOCYTE [1]: 1.33%
NEUTROPHIL [1]: 8.67%
NUCLEATED RED BLOOD CELLS [1]: 0 /100WBC
PLATELET COUNT [1]: 1392 x10E3/uL
ALANINE AMINOTRANSFERASE [1]: 44 u/L
ALBUMIN [1]: 4.1 G/DL
ALKALINE PHOSPHATASE [1]: 387 u/L
ASPARTATE AMINOTRANSFERASE [1]: 70 u/L
BLOOD UREA NITROGEN [1]: 22.67 mg/dL
CARBON DIOXIDE [1]: 23.33 mmol/L
CHLORIDE [1]: 101 MEQ/L
CHOLESTEROL [1]: 80.33 mg/dL
CREATINE PHOSPHOKINASE [1]: 236.67 u/L
CREATININE [1]: 0.18 mg/dL
GLUCOSE [1]: 166 mg/dL
LACTATE DEHYDROGENASE [1]: 94.33 u/L
LIPASE [1]: 10 u/L
PHOSPHORUS [1]: 11.87 mg/dL
SODIUM [1]: 140.73 MEQ/L
TOTAL BILIRUBIN [1]: 0.23 mg/dL
TOTAL PROTEIN [1]: 5.83 G/DL
URIC ACID [1]: 2.13 mg/dL
ABSOLUTE BASOPHIL [2]: 0 CELLS/uL
ABSOLUTE EOSINOPHIL [2]: 0 CELLS/uL
ABSOLUTE LYMPHOCYTE [2]: 11890.67 CELLS/uL
ABSOLUTE MONOCYTE [2]: 94.67 CELLS/uL
ABSOLUTE SEGMENTED NEUTROPHIL [2]: 1714.67 CELLS/uL
BASOPHIL [2]: 0%
EOSINOPHIL [2]: 0%
ERYTHROCYTE COUNT [2]: 6.1 x10E6/uL
HEMATOCRIT [2]: 36.67%
HEMOGLOBIN [2]: 14.77 G/DL
LEUKOCYTE COUNT [2]: 13.7 x10E3/uL
LYMPHOCYTE [2]: 87%
MEAN CORPUSCULAR HEMOGLOBIN [2]: 24.23 pg
MEAN CORPUSCULAR HEMOGLOBIN CONCENTRATION [2]: 40.3 G/DL
MEAN CORPUSCULAR VOLUME [2]: 60.07 fL
MONOCYTE [2]: 0.67%
NEUTROPHIL [2]: 12.33%
NUCLEATED RED BLOOD CELLS [2]: 0 /100WBC
PLATELET COUNT [2]: 1320.33 x10E3/uL
ALANINE AMINOTRANSFERASE [2]: 51.33 u/L
ALBUMIN [2]: 4.53 G/DL
ALKALINE PHOSPHATASE [2]: 401 u/L
ASPARTATE AMINOTRANSFERASE [2]: 81.67 u/L
BLOOD UREA NITROGEN [2]: 22.33 mg/dL
CARBON DIOXIDE [2]: 27.67 mmol/L
CHLORIDE [2]: 96.33 MEQ/L
CHOLESTEROL [2]: 70.67 mg/dL
CREATINE PHOSPHOKINASE [2]: 297.33 u/L
CREATININE [2]: 0.22 mg/dL
GLUCOSE [2]: 158 mg/dL
LACTATE DEHYDROGENASE [2]: 249 u/L
LIPASE [2]: 9.67 u/L
PHOSPHORUS [2]: 11.77 mg/dL
SODIUM [2]: 139.17 MEQ/L
TOTAL BILIRUBIN [2]: 0.17 mg/dL
URIC ACID [2]: 2 mg/dL
ABSOLUTE BASOPHIL [3]: 0 CELLS/uL
ABSOLUTE EOSINOPHIL [3]: 42.33 CELLS/uL
ABSOLUTE LYMPHOCYTE [3]: 11490 CELLS/uL
ABSOLUTE MONOCYTE [3]: 124.67 CELLS/uL
ABSOLUTE SEGMENTED NEUTROPHIL [3]: 1076.33 CELLS/uL
BASOPHIL [3]: 0%
EOSINOPHIL [3]: 0.33%
ERYTHROCYTE COUNT [3]: 5.63 x10E6/uL
HEMATOCRIT [3]: 33.57%
HEMOGLOBIN [3]: 13.17 G/DL
LEUKOCYTE COUNT [3]: 12.73 x10E3/uL
LYMPHOCYTE [3]: 90%
MEAN CORPUSCULAR HEMOGLOBIN [3]: 23.43 pg
MEAN CORPUSCULAR HEMOGLOBIN CONCENTRATION [3]: 39.27 G/DL
MEAN CORPUSCULAR VOLUME [3]: 59.63 fL
MONOCYTE [3]: 1%
NEUTROPHIL [3]: 8.67%
NUCLEATED RED BLOOD CELLS [3]: 0 /100WBC
PLATELET COUNT [3]: 1324.33 x10E3/uL
ALANINE AMINOTRANSFERASE [3]: 40.33 u/L
ALBUMIN [3]: 4.03 G/DL
ALKALINE PHOSPHATASE [3]: 322.67 u/L
ASPARTATE AMINOTRANSFERASE [3]: 68 u/L
BLOOD UREA NITROGEN [3]: 26.67 mg/dL
CARBON DIOXIDE [3]: 24.67 mmol/L
CHLORIDE [3]: 101.33 MEQ/L
CHOLESTEROL [3]: 71.67 mg/dL
CREATINE PHOSPHOKINASE [3]: 262 u/L
CREATININE [3]: 0.29 mg/dL
GLUCOSE [3]: 155 mg/dL
LACTATE DEHYDROGENASE [3]: 122.67 u/L
LIPASE [3]: 9.67 u/L
PHOSPHORUS [3]: 11.5 mg/dL
SODIUM [3]: 141.1 MEQ/L
TOTAL BILIRUBIN [3]: 0.13 mg/dL
TOTAL PROTEIN [3]: 5.77 G/DL
URIC ACID [3]: 1.53 mg/dL
ABSOLUTE BASOPHIL [4]: 0 CELLS/uL
ABSOLUTE EOSINOPHIL [4]: 43.33 CELLS/uL
ABSOLUTE LYMPHOCYTE [4]: 10946.67 CELLS/uL
ABSOLUTE MONOCYTE [4]: 86.67 CELLS/uL
ABSOLUTE SEGMENTED NEUTROPHIL [4]: 1123.33 CELLS/uL
BASOPHIL [4]: 0%
EOSINOPHIL [4]: 0.33%
ERYTHROCYTE COUNT [4]: 5.62 x10E6/uL
HEMATOCRIT [4]: 34.17%
HEMOGLOBIN [4]: 13.67 G/DL
LEUKOCYTE COUNT [4]: 12.2 x10E3/uL
LYMPHOCYTE [4]: 89.67%
MEAN CORPUSCULAR HEMOGLOBIN [4]: 24.37 pg
MEAN CORPUSCULAR HEMOGLOBIN CONCENTRATION [4]: 40 G/DL
MEAN CORPUSCULAR VOLUME [4]: 60.8 fL
MONOCYTE [4]: 0.67%
NEUTROPHIL [4]: 9.33%
NUCLEATED RED BLOOD CELLS [4]: 0 /100WBC
PLATELET COUNT [4]: 1374 x10E3/uL
ALANINE AMINOTRANSFERASE [4]: 43.33 u/L
ALBUMIN [4]: 4.17 G/DL
ALKALINE PHOSPHATASE [4]: 336.33 u/L
ASPARTATE AMINOTRANSFERASE [4]: 74 u/L
BLOOD UREA NITROGEN [4]: 29.67 mg/dL
CARBON DIOXIDE [4]: 22.67 mmol/L
CHLORIDE [4]: 103 MEQ/L
CHOLESTEROL [4]: 72 mg/dL
CREATINE PHOSPHOKINASE [4]: 214 u/L
CREATININE [4]: 0.25 mg/dL
GLUCOSE [4]: 167.67 mg/dL
LACTATE DEHYDROGENASE [4]: 146.33 u/L
LIPASE [4]: 9.67 u/L
PHOSPHORUS [4]: 10.97 mg/dL
SODIUM [4]: 141.47 MEQ/L
TOTAL BILIRUBIN [4]: 0.13 mg/dL
TOTAL PROTEIN [4]: 5.97 G/DL
URIC ACID [4]: 1.9 mg/dL
